Test results published in ChEMBL document CHEMBL1135372, “3-Aryl pyridone derivatives. Potent and selective kappa opioid receptor agonists” (Bioorg Med Chem Lett, 2002).

Experiments:
[1] = target: T1, Kappa-type opioid receptor (Homo sapiens, UniProt P41145); test: Binding affinity towards kappa opioid receptor by the displacement of [125I]-(D-Pro10)-Dynorphin A
[2] = target: Delta-type opioid receptor (Homo sapiens, UniProt P41143); test: Binding affinity towards delta opioid receptor by the displacement of [125I]deltorphin
Delta-type opioid receptor, sequence (P41143 whole entry): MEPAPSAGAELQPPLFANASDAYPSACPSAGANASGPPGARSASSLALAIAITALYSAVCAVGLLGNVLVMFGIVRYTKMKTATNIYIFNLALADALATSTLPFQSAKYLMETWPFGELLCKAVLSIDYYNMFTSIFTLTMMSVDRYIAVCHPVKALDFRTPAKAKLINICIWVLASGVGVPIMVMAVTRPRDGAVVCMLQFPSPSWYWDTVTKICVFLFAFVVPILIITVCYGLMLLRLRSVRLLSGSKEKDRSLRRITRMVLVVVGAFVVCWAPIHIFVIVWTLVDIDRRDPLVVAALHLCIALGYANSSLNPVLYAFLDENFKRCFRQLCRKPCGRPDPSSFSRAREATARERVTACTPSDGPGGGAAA

Mu-type opioid receptor = Mu-type opioid receptor (Homo sapiens, UniProt P35372); test: Binding affinity towards mu opioid receptor by the displacement of [125I]Enkephalin
Mu-type opioid receptor, sequence (P35372 whole entry): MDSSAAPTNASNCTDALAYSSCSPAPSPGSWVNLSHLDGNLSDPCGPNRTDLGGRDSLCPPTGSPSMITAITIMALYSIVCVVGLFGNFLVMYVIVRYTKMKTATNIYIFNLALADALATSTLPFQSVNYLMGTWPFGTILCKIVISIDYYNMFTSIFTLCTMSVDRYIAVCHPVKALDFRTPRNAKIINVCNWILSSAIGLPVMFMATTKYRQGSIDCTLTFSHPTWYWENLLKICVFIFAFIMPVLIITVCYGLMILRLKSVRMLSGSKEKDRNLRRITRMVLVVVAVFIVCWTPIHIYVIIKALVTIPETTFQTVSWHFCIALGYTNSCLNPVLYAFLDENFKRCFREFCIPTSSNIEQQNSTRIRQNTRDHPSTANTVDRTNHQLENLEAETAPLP

[3] = target: T1, Kappa-type opioid receptor; test: Functional activity in HEK293 cells overexpressing the human kappa opioid receptor was determined using a radiolabeled [35S]GTP-gamma-S, assay; type: cell-based

T1 sequence (P41145 whole entry): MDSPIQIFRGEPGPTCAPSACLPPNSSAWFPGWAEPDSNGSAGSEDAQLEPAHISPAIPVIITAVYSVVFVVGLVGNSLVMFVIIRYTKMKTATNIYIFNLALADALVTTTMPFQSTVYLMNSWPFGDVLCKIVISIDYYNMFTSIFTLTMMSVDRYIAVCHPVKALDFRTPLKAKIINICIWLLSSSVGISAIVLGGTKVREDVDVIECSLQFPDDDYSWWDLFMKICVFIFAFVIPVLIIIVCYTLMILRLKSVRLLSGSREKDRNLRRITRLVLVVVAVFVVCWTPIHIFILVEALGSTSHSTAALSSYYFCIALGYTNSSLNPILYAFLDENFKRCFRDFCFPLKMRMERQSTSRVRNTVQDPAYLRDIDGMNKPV

Structure (SMILES)	IC50 [1]	IC50 [2]	IC50 (Mu-type opioid receptor)	ED50 [3]
O=c1c(-c2cc3ccccc3o2)cccn1C(CN1CCCC1)c1ccccc1 (centres undefined)	271 nM	–	–	–
COc1ccc(F)cc1-c1cccn(C(CN2CCCC2)c2ccccc2)c1=O (centres undefined)	3.4 nM	4350 nM	3460 nM	–
COc1ccccc1-c1cccn(C(CN2CCCC2)c2ccccc2)c1=O (centres undefined)	19.5 nM	> 10000 nM	1200 nM	–
O=c1c(-c2cccs2)cccn1C(CN1CCCC1)c1ccccc1 (centres undefined)	1180 nM	–	–	–
O=c1ccc(-c2ccc(Cl)cc2)cn1C(CN1CCCC1)c1ccccc1 (centres undefined)	524 nM	–	–	–
O=c1ccc(-c2ccc(Cl)c(Cl)c2)cn1C(CN1CCCC1)c1ccccc1 (centres undefined)	1490 nM	–	–	–
COc1ccc(Cl)cc1-c1cccn(C(CN2CCCC2)c2ccccc2)c1=O (centres undefined)	1.5 nM	4170 nM	1240 nM	–
Cc1cccc(-c2cccn(C(CN3CCCC3)c3ccccc3)c2=O)c1 (centres undefined)	79.3 nM	639 nM	> 10000 nM	–
O=c1c(-c2ccc(C(F)(F)F)cc2)cccn1C(CN1CCCC1)c1ccccc1 (centres undefined)	8.7 nM	> 10000 nM	2720 nM	49.4 nM
O=c1c(-c2cccc([N+](=O)[O-])c2)cccn1C(CN1CCCC1)c1ccccc1 (centres undefined)	2.2 nM	> 10000 nM	3910 nM	–
O=c1c(-c2ccc(F)cc2)cccn1C(CN1CCCC1)c1ccccc1 (centres undefined)	34.8 nM	> 10000 nM	> 10000 nM	–
O=c1c(-c2ccc(Cl)c(Cl)c2)cccn1C(CN1CCCC1)c1ccccc1 (centres undefined)	2.3 nM	> 10000 nM	2060 nM	–
O=c1c(-c2ccc3ccccc3c2)cccn1C(CN1CCCC1)c1ccccc1 (centres undefined)	31.9 nM	> 10000 nM	2680 nM	–
O=c1c(-c2cc(F)ccc2F)cccn1C(CN1CCCC1)c1ccccc1 (centres undefined)	22.5 nM	> 10000 nM	> 10000 nM	–
O=c1c(-c2ccccc2C(F)(F)F)cccn1C(CN1CCCC1)c1ccccc1 (centres undefined)	5.7 nM	> 10000 nM	1680 nM	–
O=c1c(-c2ccc(OC(F)(F)F)cc2)cccn1C(CN1CCCC1)c1ccccc1 (centres undefined)	34.2 nM	> 10000 nM	1100 nM	–
COc1ccc(OC)c(-c2cccn(C(CN3CCCC3)c3ccccc3)c2=O)c1 (centres undefined)	3.44 nM	> 10000 nM	> 5000 nM	–
COc1ccc(-c2cccn(C(CN3CCCC3)c3ccccc3)c2=O)cc1 (centres undefined)	49.4 nM	5210 nM	1460 nM	–
O=c1c(-c2ccccc2)cccn1C(CN1CCCC1)c1ccccc1 (centres undefined)	56.3 nM	> 10000 nM	> 10000 nM	–
N#Cc1cccc(-c2cccn(C(CN3CCCC3)c3ccccc3)c2=O)c1 (centres undefined)	5.3 nM	> 10000 nM	4280 nM	–
O=c1c(-c2cccc(Cl)c2)cccn1C(CN1CCCC1)c1ccccc1 (centres undefined)	2.4 nM	> 10000 nM	308 nM	–
O=c1c(-c2ccc(Cl)cc2)cccn1C(CN1CCCC1)c1ccccc1 (centres undefined)	5.5 nM	> 10000 nM	4840 nM	–
